Key:
Assay in all cases: relative viability (nuclei count vs DMSO), 5 days (fraction); higher = more cells survive
[1] = compound: CN[C@@H]1C[C@H]2O[C@@](C)([C@@H]1OC)n1c3ccccc3c3c4c(c5c6ccccc6n2c5c31)C(=O)NC4 [Staurosporine] + Cc1nc(Nc2ncc(C(=O)Nc3c(C)cccc3Cl)s2)cc(N2CCN(CCO)CC2)n1 [Dasatinib] (partner 0.075 µM)
How it was run: (§1)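 Values are medians from duplicate plates. Each reflects relative viability, defined as the nuclei count of treated wells over that of vehicle wells. Lung cancer cell lines in 1536-well plates were pin-tool dosed one day after seeding with one drug alone or with a fixed anchor-drug dose plus five library-drug doses (not always all listed) in √10 steps, then fixed, stained and imaged at 4× after 5 days.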

[2] = compound: O=c1[nH]cc(F)c(=O)[nH]1 [5-Fluorouracil] + CC(=O)Nc1cccc(-n2c(=O)n(C3CC3)c(=O)c3c(Nc4ccc(I)cc4F)n(C)c(=O)c(C)c32)c1 [Trametinib] (partner 0.02 µM)
How it was run: as §1

[3] = compound: O=c1[nH]cc(F)c(=O)[nH]1 [5-Fluorouracil] + Cc1cc(Nc2cc(N3CCN(C)CC3)nc(Sc3ccc(NC(=O)C4CC4)cc3)n2)n[nH]1 [Tozasertib] (partner 0.1 µM)
How it was run: as §1

[4] = compound: O=c1[nH]cc(F)c(=O)[nH]1 [5-Fluorouracil] + Cc1nc(NC(=O)N2CCC[C@H]2C(N)=O)sc1-c1ccnc(C(C)(C)C(F)(F)F)c1 [Alpelisib] (partner 2 µM)
How it was run: as §1

[5] = compound: O=c1[nH]cc(F)c(=O)[nH]1 [5-Fluorouracil] + O=C(CCCCCCC(=O)Nc1ccccc1)NO [Vorinostat] (partner 1 µM)
How it was run: as §1

**Q.** How did the relative viability ([1]; first compound 0.005 µM) turn out when UMC-11 was run?
**A.** The relative viability was 0.508.

**Q.** What about the relative viability ([1]; first compound 0.05 µM) of the same cell line?
**A.** Its relative viability is 0.149.

**Q.** And the relative viability ([1]; first compound 0.1581 µM)?
**A.** The relative viability was 0.114.

**Q.** What about the relative viability ([1]; first compound 0.5 µM) of the same cell line?
**A.** The relative viability was 0.0934.

**Q.** And the relative viability ([2]; first compound 0.02 µM)?
**A.** The relative viability was 0.711.

**Q.** What about the relative viability ([2]; first compound 0.2 µM) of the same cell line?
**A.** The relative viability was 0.673.

**Q.** What about the relative viability ([2]; first compound 0.6325 µM) of the same cell line?
**A.** Its relative viability is 0.448.

**Q.** What about the relative viability ([3]; first compound 0.02 µM) of the same cell line?
**A.** Its relative viability is 0.183.

**Q.** And the relative viability ([3]; first compound 0.2 µM)?
**A.** The relative viability was 0.188.

**Q.** What about the relative viability ([3]; first compound 0.6325 µM) of the same cell line?
**A.** The relative viability was 0.203.

**Q.** And the relative viability ([3]; first compound 2 µM)?
**A.** Its relative viability is 0.188.

**Q.** And the relative viability ([4]; first compound 0.02 µM)?
**A.** The relative viability was 0.792.

**Q.** What about the relative viability ([4]; first compound 0.2 µM) of the same cell line?
**A.** The relative viability was 0.645.

**Q.** What about the relative viability ([4]; first compound 2 µM) of the same cell line?
**A.** The relative viability was 0.326.

**Q.** What about the relative viability ([5]; first compound 0.02 µM) of the same cell line?
**A.** Its relative viability is 0.374.

**Q.** What about the relative viability ([5]; first compound 0.2 µM) of the same cell line?
**A.** The relative viability was 0.325.

**Q.** And the relative viability ([5]; first compound 0.6325 µM)?
**A.** The relative viability was 0.244.

Reference: the supplement of paper PMC10307832
